Data published in US20110172305A1, “Endocannabinoids for Enhancing Growth and Development in Infants” (priority 2007, published 2011).

Tests used:
[1] = Motor activity (ambulation) in an open field at 3 months of age; type: in vivo, mouse (ICR strain); settings: tested at 3 months of age
Method: (§1) At adulthood (3 months of age), mice were subjected to the open field assay for motor activity (ambulation and rearing), to the Porsolt forced swim test for anti-depressant-like effects and to the prepulse-inhibited acoustic startle response (PPI) assay which assesses sensorimotor gating.
Motor activity in an Open field: Mice were placed in a transparent open field (30×40 cm, divided into 20 squares of equal size), measuring horizontal (ambulatory) and vertical activity, for 6 minutes (min), by manually scoring the number of squares crossed (see (Fride and Mechoulam, 1993).
The bottom of the open field was divided into 20 squares of equal size. Activity was assessed as the number of squares crossed.

[2] = Body weight of pups raised in small or large (malnourished) litters, daily neonatal injections; type: in vivo, mouse (ICR strain)
Method: (§2) Using an environmental manipulation technique, within 24 hours of birth, half of each mouse litter (ICR strain) was cross-fostered to the dam of another litter born on the same day. The mouse pups of every two litters were divided up between the 2 dams such that one dam reared 4 pups (‘small litter’) and the other dam raised 18-20 pups (large litter). Pups raised in the large litter were expected to suffer from malnutrition due to the crowded environment. Half of each litter received daily injections of the endocannabinoid 2-arachidonoyl glycerol (2-AG) or THC, the major psychoactive molecule in the Cannabis sativa (marihuana) plant for the first 5 days of life. The doses used were 1 or 5 mg/kg THC or 0.1, 1 or 5 mg/kg 2-AG. Body weights were recorded daily. The body weight of pups from the small and the large litters were analyzed by two-way analysis-of-variance.

[3] = Porsolt forced swim test at adulthood; type: in vivo, mouse (ICR strain); settings: treated in infancy, tested at adulthood; FIG. 3A
Source text: as §1
Porsolt forced swim test: The forced swimming test was based on previous designs (Harkin et al., 2004; Petit-Demouliere et al., 2005; Treit and Menard, 1998): mice were placed in a 2 liter glass beaker (11 cm diameter) filled with water (24+1° C.) up to […] from the bottom (so that the mouse could not touch the bottom) and 8 cm from the rim (so that the mouse cannot escape). […] Immobility at 9 min was analyzed by a t-test, P<0.05.

[4] = Food intake ('milkbands') of pups raised in small or large litters; type: in vivo, mouse (ICR strain); settings: THC 1 or 5 mg/kg, daily injections for the first 5 days of life
Method: as §2
On each subsequent day, pups were briefly separated from their mothers for the duration of weighing and scoring of the presence of “milkbands” in their stomachs. (As the stomach area in mouse pups is transparent, due to lack of hair and the thinness of the skin, the amount of milk consumed can be observed as a “milkband”).

[5] = Intracerebral versus subcutaneous injection, pup body weight gain; type: in vivo, mouse (ICR strain); settings: day 1 of birth, FIG. 8A-E
Method: Newborn (day 1 of birth) mouse pups (ICR strain) were injected subcutaneously (sc) with SR141716 (SR, 20 or 40 mg/kg), as described previously (Fride, 2004; Fride et al., 2003; Fride et al., 2001). In addition, littermates were injected with SR directly into the brain, at 2 depths (2-3 mm) and at several doses 4.5, 9.0 or 22.5 μg (between 50 and 10-fold lower concentrations than the sc injections).

[6] = Prepulse inhibition (PPI) of the acoustic startle response; type: in vivo, mouse; settings: treated at birth; FIG. 7
Method: Prepulse Inhibition (PPI) of the startle reflex: In this experimental model a weak stimulus (70-90 db tone) inhibits the subsequent response to a strong stimulus (120 db tone). Reduced prepulse inhibition of the startle reflex (PPI) is taken as an additional index of the positive symptoms of schizophrenia (Josselyn and Vaccarino, 1998; Swerdlow and Geyer, 1998). PPI was assessed as described previously (Varty et al., 2001). In the model employed, mice were placed in a startle chamber (Hamilton and Kinder, Poway, Calif., USA). A high frequency loudspeaker produces a 65 db background noise and the various acoustic stimuli: 77 and 81 db prepulse; 120 db startle, separated by 100 ms. The startle response of the mouse is transduced and stored by a computer. Sixty-five readings are taken at 1 ms intervals, and the average amplitude is taken as the startle response. Each test session lasts for about 20 min and consists of 10 presentations of each of the six trial types (Prepulse, Prepulse+Pulse, Pulse or no stimulus other than background) separated by 15 s. The amount of prepulse inhibition is calculated as %PPI=[1-(startle response for Prepulse+Pulse)/(startle response for Pulse alone)]×100.

[7] = Growth and survival of newborn Spiny wild mice; type: in vivo, Spiny wild mice (acomys cahirinus); settings: 50 mg/kg
Source text: FIG. 9A illustrates the relative state of maturation in terms of the growth curve during the first two postnatal weeks in laboratory (ICR strain) mice, compared to Spiny wild mice (acomys cahirinus) which is born at a more advanced stage of development. […] This is similar to the difference in brain maturation predicted by the model designed by Clancy and colleagues (Clancy et al., 2007), i.e., the day of birth of the spiny mouse being equivalent to postnatal day 8 in the laboratory mouse.

## CCCCC/C=C\C/C=C\C/C=C\C/C=C\CCCC(=O)OC(CO)CO [2-AG, 2-arachidonoyl glycerol]
[1]; 2-AG at birth, FIG. 3B
  motor activity in open field (number of squares crossed): did not differ from that of controls
[2]; 0.1 mg/kg (lowest dose), daily injections for the first 5 days of life
  effect on the growth curve: no effect on the growth curve
[2]; 1 mg/kg, daily injections for the first 5 days of life, malnourished (overcrowded) litters, FIG. 1
  body weight gain: significantly enhanced body weight gain
[2]; 5 mg/kg (highest dose), daily injections for the first 5 days of life
  effect on the growth curve: no effect on the growth curve
[2]; treated as neonates, large litter, FIG. 2
  body weight at 3 months of age versus control mice from large (malnourished) litter: still had elevated body weights
[2]; treated as neonates, overcrowded litter, FIG. 2
  body weight at 3 months of age versus vehicle-treated mice raised in small litters: did not differ significantly
[3]
  behavior in the Forced swim test (immobility time): displayed anti-depressant-like behavior

## CCCCCc1cc(O)c2c(c1)OC(C)(C)[C@@H]1CCC(C)=C[C@@H]21 [THC, Δ^9-tetrahydrocannabinol]
[4]
  effect on food intake ('milkbands'): Neither of the doses of THC had an effect
[2]; THC 1 or 5 mg/kg, daily injections for the first 5 days of life
  effect on the body weight curve: Neither of the doses of THC had an effect

## Cc1c(C(=O)NN2CCCCC2)nn(-c2ccc(Cl)cc2Cl)c1-c1ccc(Cl)cc1 [Rimonabant]
[1]; rimonabant at birth, ICR strain, FIG. 6, P<0.001
  motor activity in open field (number of squares crossed): hyperactive
[5]; injected directly into the brain, 2-3 mm depth, 4.5, 9.0 or 22.5 μg
  effect on pup growth: none of the centrally injected regimens had any effect on pup growth
[5]; s.c. 20 or 40 mg/kg
  body weight gain: significantly retarded body weight gain
[6]
  sensorimotor gating, prepulse inhibition of acoustic startle response (% PPI) versus vehicle control: significantly lower
[7]; FIG. 9B, P<0.0001
  growth (body weight): highly significant delay in growth
[7]; FIG. 9C, P<0.01 versus controls
  mortality rate: 60%
